From patent publication US9834534B2, “Neuraminidase inhibitor compounds, compositions and methods for the use thereof in anti-viral treatments” (THE UNIVERSITY OF BRITISH COLUMBIA, priority 2009, dated 2017) come the findings set out here.

Bounds are passed on as bounds.

One experiment relates to Auckland pH1N1 E119K. Format: cell-based, influenza A virus. The following applies: pH 1.
The next experiment relates to Sol Isl sH1N1 E119A. Format: cell-based, influenza A virus.
For another experiment, the system named is B/Perth D197E. Format: cell-based, influenza B virus. The following applies: read-out: sensitivity to inhibitors, B/Perth D197E.
A further experiment relates to sH1N1/01 H274Y. Format: cell-based, influenza A virus. The following applies: read-out: IC50 sH1N/01 H274Y.
In a further experiment the test system is Fukui H3N2 E119V. The experiment is classed as cell-based, influenza A virus.
The subject of experiment [1] is B/Florida E119D (B/Florida/4/2006 mutant 1 E117D). Format: cell-based, influenza B virus.
The next experiment relates to sH1N1/08 H274Y. Format: cell-based, influenza A virus.

In the case of `CC(=O)N[C@@H]1C(NC(=N)N)C(F)[C@](F)(C(=O)O)OC1[C@H](O)[C@H](O)CO` (stereo partly drawn) [Compound 12, (2R,3R)-4-Guanyl-2,4-dideoxy-2,3-difluorosialic acid], the IC50 was […] with Auckland pH1N1 E119K; […] in the experiment on Sol Isl sH1N1 E119A; 162 nM in the experiment with B/Perth D197E; 217 nM with sH1N1/01 H274Y; 998 µM with Fukui H3N2 E119V.
On to `CCOC(=O)C1=C[C@@H](OC(CC)CC)[C@H](NC(C)=O)[C@@H](N)C1` [Oseltamivir], for which the IC50 with Auckland pH1N1 E119K was found to be 0.147 µM; in experiment [1], 1200 nM; with Sol Isl sH1N1 E119A it was 0.419 µM; with sH1N1/01 H274Y it was 2440 nM; in the experiment with Fukui H3N2 E119V it was 260 µM; in the experiment with sH1N1/08 H274Y it was 2000 nM.
As for `CC(=O)N[C@H]1[C@H]([C@H](O)[C@H](O)CO)OC(C(=O)O)=C[C@@H]1N=C(N)N` [Zanamivir, reference compound], the IC50 was more than 100 µM in the experiment on Auckland pH1N1 E119K; more than 10000 nM in experiment [1]; more than 10 µM in the experiment on Sol Isl sH1N1 E119A; 258 nM in the experiment on B/Perth D197E; 3.4 µM with Fukui H3N2 E119V; 2 nM in the experiment on sH1N1/08 H274Y.
Consider `CC(=O)NC1C(NC(=N)N)C(F)C(F)(C(=O)O)OC1[C@H](O)[C@H](O)CO` (stereo partly drawn) [4-G3Feq diF SA, 5-Acetamido-2,4,5-trideoxy-2α, 3β-difluoro-4-guanidino-α-D-erythro-L-gluco-nonulopyranosonate], for which the IC50 with Auckland pH1N1 E119K was […]; in the experiment on B/Perth D197E, 8 nM; in the experiment with sH1N1/01 H274Y, 43.5 nM; in the experiment with Fukui H3N2 E119V it was 2.4 µM.
